The target in test [1] is human GalNAc-T2 (UDP-GalNAc:polypeptide N-acetylgalactosaminyltransferase T2), secreted soluble enzyme (sT2), wild type (Homo sapiens, UniProt Q10471). Briefly: biochemical. The protocol:
(§1) The pH of 1 ml purified protein (0.3 mg/ml) in PBS was adjusted to pH 9 with 1 M NaOH and 40 μl N-hydroxy-succinimidobiotin (Sigma) dissolved in DMF (10 mg/ml) was added. The solution was mixed end-over-end for 2 hours at room temperature, and dialyzed three times against PBS and an equal volume of glycerol was added. The biotinylated proteins were stored at −20° C. in 50% glycerol until use.
(§2) Glycopeptides were purified by C-18 reverse phase HPLC. Peptides were custom synthesized by Neosystems (Strasbourg). Biotinylated Helix Pomatia lectin (HPA) was from KemEnTec (Denmark). Anti-MUC1 HMFG2 monoclonal antibody was a generous gift from Joyce Taylor-Papadimitriou.
(§3) Direct binding ELISA assay was developed as follows: Polystyrene microtiter plates (Maxisorb, Nunc, Denmark) were coated with peptides or enzymatically glycosylated glycopeptides in PBS overnight at 4° C. Plates were washed and blocked with 0.1% Tween20 and 0.2% BSA in PBS for 1 h at room temperature, followed by incubation with biotinylated proteins in PBS with 0.05% Tween20 for 2 h at room temperature. After four washes with PBS, plates were incubated with 1:2,000 dilution streptavidin-HRP (Sigma) in PBS for 30 min at room temperature and washed four times with PBS. […]

Test [2] has as its target human GalNAc-T4 (UDP-GalNAc:polypeptide N-acetylgalactosaminyltransferase T4) isolated truncated lectin domain (T4ld), HIS-tagged, amino acid residues 405-578 o (Homo sapiens, UniProt Q8N4A0). Briefly: biochemical. It is filed as binding. The conditions noted are these: read-out: Concentration required for 50% inhibition (IC50), binding to GalNAc-MUC1 glycopeptide. The source says: In order to minimize the size and functional complexity of GalNAc-transferase lectins to be used as probes for binding studies, we used multiple sequence alignment analysis to predict and design suitable expression constructs for isolated lectin domains (FIG. 2). In the present invention a direct binding assay was developed using isolated lectin domains of GalNAc-T4 and -T2 with minimal size (FIG. 5). […] The lectin Helix Pomatia (HP) was used as a control plant lectin with known binding specificity for […].
Direct binding ELISA assay was developed as follows: Polystyrene microtiter plates (Maxisorb, Nunc, Denmark) were coated with peptides or enzymatically glycosylated glycopeptides in PBS overnight at 4° C. Plates were washed and blocked with 0.1% Tween20 and 0.2% BSA in PBS for 1 h at room temperature, followed by incubation with biotinylated proteins in PBS with 0.05% Tween20 for 2 h at room temperature. After four washes with PBS, plates were incubated with 1:2,000 dilution streptavidin-HRP (Sigma) in PBS for 30 min at room temperature and washed four times with PBS. Development was performed with 0.5 mg/ml o-phenylenediamine and 0.02% H2O2 at room temperature for 15 min, and reaction stopped by adding 100 μl/well of 0.5 N H2SO4. Competitive inhibition assays were done at end-point titers of GalNAc-transferase proteins with one hour preincubations with inhibitor.
In binding studies using lectins without biotinylation antibodies to the HIS-tag and the T7-tag, or in some experiments antibodies raised to GalNAc-T2 and -T4 enzymes were used to detect binding.
Inhibition experiments were used to further define the binding specificity of GalNAc-T2 and -T4 secreted soluble enzymes as well as lectin domains compared to Helix Pomatia lectin (Table IV).
The ligand target used in this Example is a GalNAc-MUC1 glycopeptide produced enzymatically from synthetic peptides.

Test [3] addresses human GalNAc-T4 (UDP-GalNAc:polypeptide N-acetylgalactosaminyltransferase T4), secreted soluble enzyme (sT4), wild type (Homo sapiens, UniProt Q8N4A0). The conditions noted are these: read-out: Concentration required for 50% inhibition (IC50), binding to GalNAc-MUC1 glycopeptide. As to the method:
as §1, §2, §3

In test [4] the test system is GalNAc-MUC1 glycopeptide. Briefly: Direct binding assay (ELISA) of biotinylated GalNAc-transferases to GalNAc-MUC1 glycopeptide (FIG. 4). The arrangement: species or system human. The following applies: coated at 1 μg/ml, biotinylated enzymes. The protocol:
(§4) FIG. 4 is a plot of absorbance v. ligand dilution showing GalNAc-transferase binding to GalNAc-MUC1 glycopeptide. A direct binding assay (ELISA) mediated by the lectin domain was developed and validated with soluble secreted GalNAc-T4 and -T2 enzyme proteins. ELISA plates were coated with peptides or glycopeptides at 1 μg/ml, blocked with BSA, and incubated with biotinylated enzymes. After washing, bound enzyme proteins were detected with HRP-Streptavidin as described in detail in Example 2. Secreted soluble constructs of GalNAc-transferases which are enzymatically active may bind to (glyco)peptide substrates through their catalytic units as originally described for GalNAc-T2^32.
as §3
A general note: An ELISA detects its analyte on a solid surface through an enzyme-linked reagent.

Test [5] deals with unglycosylated MUC1 peptide. The test can be described thus: Direct binding assay (ELISA) of biotinylated GalNAc-transferases to unglycosylated MUC1 peptide (FIG. 4). The arrangement: species or system human. The conditions noted are these: coated at 1 μg/ml, biotinylated enzymes. The protocol:
as §4, §3

pIC50: −log10 of the molar value. Where two headings read alike, the source gives them in different places.

human GalNAc-T2 (UDP-GalNAc:polypeptide N-acetylgalactosaminyltransferase T2), secreted soluble enzyme (sT2), wild type, sequence (Q10471 52-571 limits assumed): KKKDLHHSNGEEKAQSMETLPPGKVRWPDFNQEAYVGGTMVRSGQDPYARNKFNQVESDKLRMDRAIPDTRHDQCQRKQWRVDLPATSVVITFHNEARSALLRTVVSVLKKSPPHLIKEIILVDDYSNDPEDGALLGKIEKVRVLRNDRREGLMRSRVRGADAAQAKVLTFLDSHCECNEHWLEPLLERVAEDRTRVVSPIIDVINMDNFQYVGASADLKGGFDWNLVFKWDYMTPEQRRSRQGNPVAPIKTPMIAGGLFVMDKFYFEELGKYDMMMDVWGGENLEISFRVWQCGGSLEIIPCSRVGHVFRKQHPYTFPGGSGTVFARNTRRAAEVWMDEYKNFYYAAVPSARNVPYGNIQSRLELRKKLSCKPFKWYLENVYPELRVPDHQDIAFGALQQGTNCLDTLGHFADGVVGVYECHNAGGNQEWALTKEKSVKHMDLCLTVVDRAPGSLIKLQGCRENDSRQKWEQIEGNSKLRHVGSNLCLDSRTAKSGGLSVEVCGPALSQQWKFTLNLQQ
human GalNAc-T4 (UDP-GalNAc:polypeptide N-acetylgalactosaminyltransferase T4) isolated truncated lectin domain (T4ld), HIS-tagged, amino acid residues 405-578 o, sequence (Q8N4A0 405-578): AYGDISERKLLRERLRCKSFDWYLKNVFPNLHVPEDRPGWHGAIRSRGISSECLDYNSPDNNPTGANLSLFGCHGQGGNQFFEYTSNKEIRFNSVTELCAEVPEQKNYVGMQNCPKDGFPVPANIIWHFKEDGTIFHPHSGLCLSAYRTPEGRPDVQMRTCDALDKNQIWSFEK
human GalNAc-T4 (UDP-GalNAc:polypeptide N-acetylgalactosaminyltransferase T4), secreted soluble enzyme (sT4), wild type, sequence (Q8N4A0 36-578 limits assumed): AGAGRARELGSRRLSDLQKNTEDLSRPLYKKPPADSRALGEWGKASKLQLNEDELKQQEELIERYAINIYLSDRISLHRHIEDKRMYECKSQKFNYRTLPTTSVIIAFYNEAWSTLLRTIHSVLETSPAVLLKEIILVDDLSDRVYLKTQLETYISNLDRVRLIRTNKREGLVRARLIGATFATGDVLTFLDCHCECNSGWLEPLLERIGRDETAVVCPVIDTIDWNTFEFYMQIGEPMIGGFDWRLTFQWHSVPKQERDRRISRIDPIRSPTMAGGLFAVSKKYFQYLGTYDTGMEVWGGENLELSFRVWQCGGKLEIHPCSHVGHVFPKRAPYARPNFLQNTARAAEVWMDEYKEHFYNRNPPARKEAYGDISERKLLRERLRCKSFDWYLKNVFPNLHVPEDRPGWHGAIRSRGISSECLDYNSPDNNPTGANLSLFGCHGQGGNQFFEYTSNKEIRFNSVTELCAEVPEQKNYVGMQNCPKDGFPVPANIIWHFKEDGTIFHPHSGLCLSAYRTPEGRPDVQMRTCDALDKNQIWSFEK

For the compound `CC(=O)N[C@H]1[C@@H](Oc2ccccc2)O[C@H](CO)[C@H](O)[C@@H]1O` [PhlαGalNAc], the pIC50 is 2.30 in test [1] (read-out: Concentration required for 50% inhibition (IC50), binding to GalNAc-MUC1 glycopeptide); 2.30 in test [2]; 3.00 in test [3].

The compound `CC(=O)N[C@H]1[C@H](Oc2ccccc2[N+](=O)[O-])O[C@H](CO)[C@H](O)[C@@H]1O` [oNPβGalNAc] gave a pIC50 in test [1] (binding to GalNAc-MUC1 glycopeptide) of 2.00.

For the compound “GalNAc-T2: soluble secreted human GalNAc-T2 enzyme protein, biotinylated”, the “binding to GalNAc-MUC1 glycopeptide” value in test [4] is given as “selectively bind”. Besides, the “binding to unglycosylated MUC1 peptide” value in test [5] was “no significant binding”.

For the compound “GalNAc-T4 wild type: soluble secreted human GalNAc-T4 enzyme protein, biotinylated”, the “binding to GalNAc-MUC1 glycopeptide” value in test [4] is on record as “selectively bind”. The “binding to unglycosylated MUC1 peptide” value in test [5] is recorded as “no significant binding”.

The values are drawn from patent publication US20080038809A1, “ISOLATED LECTIN POLYPEPTIDES CONSISTING OF TRUNCATED […] UDP-GalNAc:POLYPEPTIDE N- ACETYLGALACTOSAMINYLTRANSFERASES” (GLYCOZYM APS, priority 2002, published 2008).
